As a reminder, the IC50 is the point on the concentration scale where inhibition reaches its midpoint. Low values mean greater potency, high ones weaker potency.

Each structure is given as a SMILES string.

This assay deals with Transitional endoplasmic reticulum ATPase (Homo sapiens, UniProt P55072, C522A). Nature of the assay: C522A mutant p97 ATPase inhibitors, dose response, counter-screen for p97 inhibitor project, biochemical, luminescence (AID 1544). In general terms: A counterscreen serves to expose hits that act by an unwanted route or on another target.
Transitional endoplasmic reticulum ATPase, sequence (P55072 2-806 C522A limits assumed): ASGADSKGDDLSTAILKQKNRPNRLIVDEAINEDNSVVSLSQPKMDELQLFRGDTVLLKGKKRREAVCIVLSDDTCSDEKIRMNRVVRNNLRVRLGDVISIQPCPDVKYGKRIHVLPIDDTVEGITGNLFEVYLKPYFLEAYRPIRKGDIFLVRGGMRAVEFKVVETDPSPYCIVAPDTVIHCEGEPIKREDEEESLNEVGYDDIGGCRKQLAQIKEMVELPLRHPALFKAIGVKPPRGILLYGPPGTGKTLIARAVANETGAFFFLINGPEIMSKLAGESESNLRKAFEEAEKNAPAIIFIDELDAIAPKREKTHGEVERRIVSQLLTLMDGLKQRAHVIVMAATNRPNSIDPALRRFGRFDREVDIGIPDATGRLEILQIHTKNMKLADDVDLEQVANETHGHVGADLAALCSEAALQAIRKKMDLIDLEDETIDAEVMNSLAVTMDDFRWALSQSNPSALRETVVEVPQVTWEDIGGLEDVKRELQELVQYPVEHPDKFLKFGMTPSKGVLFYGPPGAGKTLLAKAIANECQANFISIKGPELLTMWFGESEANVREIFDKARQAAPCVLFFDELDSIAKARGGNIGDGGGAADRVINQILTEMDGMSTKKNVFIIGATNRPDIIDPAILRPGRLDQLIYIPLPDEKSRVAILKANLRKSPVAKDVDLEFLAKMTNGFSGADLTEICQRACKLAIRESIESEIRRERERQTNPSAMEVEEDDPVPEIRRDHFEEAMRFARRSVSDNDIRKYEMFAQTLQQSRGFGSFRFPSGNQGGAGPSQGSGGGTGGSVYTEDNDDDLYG
With `On1[o+]nc2c1CCc1nc(-c3ccccc3)[n-]c1-2` [3-oxidanidyl-7-phenyl-4,5-dihydro-1H-imidazo[4,5-g][2,1,3]benzoxadiazol-3-ium], the IC50 was > 50 µM.

As to `NS(=O)(=O)c1ccc(N=NCc2ccc(O)c(O)c2O)c([N+](=O)[O-])c1` [4-[[(E)-(2,3-dihydroxy-4-oxo-1-cyclohexa-2,5-dienylidene)methyl]hydrazo]-3-nitrobenzenesulfonamide], the IC50 was > 50 µM.

In the case of `COc1ccc(CN=Nc2nnc(-c3ccccc3)c(=O)[nH]2)cc1` [4-methoxybenzaldehyde (5-oxo-6-phenyl-4,5-dihydro-1,2,4-triazin-3-yl)hydrazone], the IC50 was > 50 µM.

As for `CN(C)[C@@H]1C(=O)C(C(N)=O)C(=O)[C@@]2(O)C(=O)C3C(=O)c4c(O)cccc4[C@@](C)(O)[C@H]3[C@H](O)[C@@H]12` (stereo partly drawn) [(2E,4S,4aR,5S,5aR,6S,12aS)-2-[azanyl(oxidanyl)methylidene]-4-(dimethylamino)-6-methyl-5,6,10,11,12a-pentakis(oxidanyl)-4,4a,5,5a-tetrahydrotetracene-1,3,12-trione], the IC50 is > 50 µM.

For `Cc1ccc(SCC(=O)C(C#N)c2nc3ccccc3s2)cc1` (configuration not stated) [(2Z)-2-(3H-1,3-benzothiazol-2-ylidene)-3-keto-4-(p-tolylthio)butyronitrile], the 50% inhibitory concentration (IC50) is > 50 µM.

For the compound `Oc1ccc(CN=Nc2ccnc3cc(Cl)ccc23)cc1O` [(4Z)-4-[[2-(7-chloroquinolin-4-yl)hydrazinyl]methylidene]-2-hydroxycyclohexa-2,5-dien-1-one], the IC50 is > 50 µM.

With `Cc1ccc(C)c(SCC(=O)OCC(=O)C(C#N)c2nc3ccccc3[nH]2)c1` (configuration not stated) [MLS000392255], the half-maximal inhibitory concentration (IC50) was > 50 µM.

For the origin of these results see BindingDB's records for doi:10.7270/Q2513WMG (The Scripps Research Institute Molecular Screening Center, 2009).
